Where “and” joins values, the source holds several entries; their conditions need not be identical. Equal entries are not always repeated.
Tests used:
Format in all cases: cell-based
320 non-olfactory GPCRs [1] = biological target: T1, 320 non-olfactory GPCRs (Homo sapiens, UniProt P35368)
T1 construct: expressed in transfected cells; host or cells: HTLA cells

320 non-olfactory GPCRs [2] = biological target: T2, 320 non-olfactory GPCRs (Homo sapiens, UniProt Q01718); conditions: receptor MC2R; replicate values, Fig_4g
T2 construct: expressed in transfected cells; host or cells: HTLA cells
T2 sequence (Q01718 whole entry): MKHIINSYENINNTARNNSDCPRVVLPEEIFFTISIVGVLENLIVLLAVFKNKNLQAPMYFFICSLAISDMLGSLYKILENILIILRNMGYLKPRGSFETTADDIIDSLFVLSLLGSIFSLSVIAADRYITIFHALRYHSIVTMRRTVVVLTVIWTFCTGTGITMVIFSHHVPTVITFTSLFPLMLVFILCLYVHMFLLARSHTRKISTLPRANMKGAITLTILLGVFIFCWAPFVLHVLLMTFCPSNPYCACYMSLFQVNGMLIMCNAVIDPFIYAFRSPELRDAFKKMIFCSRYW

320 non-olfactory GPCRs [3] = biological target: T3, 320 non-olfactory GPCRs (Homo sapiens, UniProt Q15391); conditions: receptor P2RY14; replicate values, Fig_4g
T3 construct: expressed in transfected cells; host or cells: HTLA cells
T3 sequence (Q15391 whole entry): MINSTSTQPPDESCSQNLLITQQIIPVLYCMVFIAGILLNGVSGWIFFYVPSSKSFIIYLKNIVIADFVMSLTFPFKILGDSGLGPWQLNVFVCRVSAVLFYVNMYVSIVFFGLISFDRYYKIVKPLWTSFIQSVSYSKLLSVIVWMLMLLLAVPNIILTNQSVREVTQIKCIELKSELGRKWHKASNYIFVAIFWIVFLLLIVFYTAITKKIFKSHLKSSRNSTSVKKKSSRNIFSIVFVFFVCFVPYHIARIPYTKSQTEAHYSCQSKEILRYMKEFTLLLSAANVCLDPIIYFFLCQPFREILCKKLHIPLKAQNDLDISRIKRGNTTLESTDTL

320 non-olfactory GPCRs [4] = biological target: 320 non-olfactory GPCRs (Homo sapiens, UniProt Q15743); conditions: receptor GPR68 no V2 Tail; replicate values, Fig_4g
Chain of 320 non-olfactory GPCRs (Homo sapiens, UniProt Q15743) (Q15743 whole entry): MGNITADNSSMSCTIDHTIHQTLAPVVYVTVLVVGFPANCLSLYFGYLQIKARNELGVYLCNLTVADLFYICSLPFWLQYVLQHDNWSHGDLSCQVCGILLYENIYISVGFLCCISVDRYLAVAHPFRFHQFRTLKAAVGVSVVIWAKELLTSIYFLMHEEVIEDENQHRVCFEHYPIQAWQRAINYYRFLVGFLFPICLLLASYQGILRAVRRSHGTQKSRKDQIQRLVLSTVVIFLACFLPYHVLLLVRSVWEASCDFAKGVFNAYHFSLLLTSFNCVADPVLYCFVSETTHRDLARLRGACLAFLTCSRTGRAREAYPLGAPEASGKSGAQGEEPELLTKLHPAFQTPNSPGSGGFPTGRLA
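Throughout, for Fold of Basal: compound tested at 1 µM final concentration.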
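Throughout, for GPCRome agonism screen response: fold over basal response of each receptor without drug.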

T1 sequence (P35368 whole entry): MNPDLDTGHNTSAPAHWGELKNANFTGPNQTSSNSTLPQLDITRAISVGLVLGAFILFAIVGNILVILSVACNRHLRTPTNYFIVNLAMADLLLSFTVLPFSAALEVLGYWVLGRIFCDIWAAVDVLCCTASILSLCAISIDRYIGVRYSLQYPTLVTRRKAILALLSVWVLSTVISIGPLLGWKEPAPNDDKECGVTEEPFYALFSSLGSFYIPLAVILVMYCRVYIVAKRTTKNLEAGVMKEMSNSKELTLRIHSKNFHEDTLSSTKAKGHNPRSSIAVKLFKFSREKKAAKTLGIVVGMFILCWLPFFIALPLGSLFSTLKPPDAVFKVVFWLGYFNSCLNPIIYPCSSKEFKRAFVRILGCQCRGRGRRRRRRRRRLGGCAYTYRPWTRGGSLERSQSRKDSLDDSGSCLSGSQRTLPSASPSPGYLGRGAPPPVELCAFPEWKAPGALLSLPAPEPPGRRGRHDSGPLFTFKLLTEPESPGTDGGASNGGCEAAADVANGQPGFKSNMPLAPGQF

`CCOc1cccc2cc(C(C)NCC3(O)CCCCC3)oc12` (stereo not shown) [O4LE6] was tested, and the “Fold of Basal” value (320 non-olfactory GPCRs [1]) was 1.636 and 0.8834 and 1.032 and 1.027, the “GPCRome agonism screen response” value (320 non-olfactory GPCRs [2]) was 1.011 and 1.168 and 0.7811 and 1.192 and the “GPCRome agonism screen response” value (320 non-olfactory GPCRs [3]) was 0.8976 and 0.7161 and 0.7434 and 0.9997. For the same molecule, the “GPCRome agonism screen response” value (320 non-olfactory GPCRs [4]) was 1.945 and 0.5249 and 1.001 and 1.345.

From publication PMC7044277 (Nature Communications, 2020)
